Experimental data from ChEMBL document CHEMBL1201862, “PubChem BioAssay data set” (2004).
The source made the active and inactive calls.

Tests used:
[1] = test system: Vero; assay: mammalian cell viability reduction – secondary assay, cytotoxicity control for West Nile virus antiviral project, dose response (AID 1650); format: functional; details: Chlorocebus sabaeus
[2] = molecular target: Heat shock protein HSP 90-alpha (Homo sapiens, UniProt P07900); assay: Luminescence-based dose response biochemical high throughput screening assay for inhibitors of the Heat Shock Protein 90 (HSP90). [Related pubchem assays: 1831 (Summary AID.), 1846 (Confirmation screen.), 1789 (Primary screen.)]
[3] = Dd2 malaria parasite growth inhibition potency – SYBR Green, dry powder samples, dose response (AID 1159566); format: functional, cell-based;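 note: potency for growth inhibition with lower SYBR green DNA signal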
[4] = P. falciparum Dd2 growth inhibitors, dose response, SYBR Green, cherry-picked samples (AID 1159567); format: functional, cell-based
[5] = toxicity to human HepG2 hepatoma cells – cell-based, plate reader, dry powder samples, cytotoxicity control, dose response (AID 1159569); format: functional;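 note: inhibitor potency with signal falling toward the positive control level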
[6] = growth inhibition of PfATP4-mutant resistant parasites – NITD609-resistant line, SYBR Green, dry powder, dose response (AID 1159571); format: functional, cell-based;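 note: parasites synchronized at ring stage by sorbitol before testing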
[7] = growth inhibition of yeast DHODH-expressing 3D7 parasites – SYBR Green, dry powder samples, dose response (AID 1159570); format: functional, cell-based;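 note: parasite growth measured after 72 hours of compound exposure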
[8] = Luminescence-based cell-based high throughput dose response assay to identify activators of the DAF-12 from the parasite S. stercoralis (ssDAF-12).; format: functional
[9] = molecular target: T1, Oxysterols receptor LXR-beta (Homo sapiens, UniProt P55055); format: functional, cell-based;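 note: agonist activity at LXR measured by a cell-based luminescence readout across a dose range, run as a counterscreen for daf-12 agonists; potency for activation of Gal4-LXR reporter so compounds are agonists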
T1 sequence (P55055 whole entry): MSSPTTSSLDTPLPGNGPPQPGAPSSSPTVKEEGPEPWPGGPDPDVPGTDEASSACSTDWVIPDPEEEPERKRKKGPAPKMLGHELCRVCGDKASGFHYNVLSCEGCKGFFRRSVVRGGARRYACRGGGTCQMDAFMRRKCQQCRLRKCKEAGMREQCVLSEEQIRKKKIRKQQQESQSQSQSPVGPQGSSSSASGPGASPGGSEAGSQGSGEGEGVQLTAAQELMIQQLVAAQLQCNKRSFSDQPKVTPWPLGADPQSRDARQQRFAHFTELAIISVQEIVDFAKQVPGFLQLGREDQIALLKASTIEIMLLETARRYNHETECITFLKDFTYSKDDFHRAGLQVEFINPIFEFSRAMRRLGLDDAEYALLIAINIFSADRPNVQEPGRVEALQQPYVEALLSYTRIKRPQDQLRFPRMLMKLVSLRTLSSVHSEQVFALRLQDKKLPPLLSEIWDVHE

[10] = molecular target: T1, Oxysterols receptor LXR-beta; assay: LXR agonists, Gal4 luciferase reporter, dose response, counter-screen for ssDAF-12 agonist project, cell-based, luminescence, HEK293, S. stercoralis campaign (AID 720737); format: functional; details: read-out: IC50 (the source's name)
[11] = HEK293 Cytotoxicity Assay Measured in Cell-Based System Using Plate Reader - 7071-01_Inhibitor_Dose_CherryPick_Activity_Set2.; format: functional
[12] = test system: HeLa; assay: viability loss in HeLa cells – cell-based, ATP luminescence, cherry-pick samples, cytotoxicity control, dose response (AID 687004); format: functional; details: Homo sapiens
[13] = test system: HEK293; assay: viability loss in HEK293T cells – cell-based, ATP luminescence, cherry-pick samples, cytotoxicity control, dose response (AID 687005); format: functional; details: Homo sapiens;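 note: cells exposed to compound for 48 hours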
[14] = reduced cellular PGC1a acetyl-lysine signal – cell-based, cherry-picked samples, dose response (AID 720514); format: functional;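 note: potency may reflect raised or lowered acetylation signal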
[15] = DRD fibroblast viability loss – cell-based, non-viral oncogenic, luminescence, dose response (AID 1934); format: functional; details: Homo sapiens
[16] = test system: BJ; assay: cells; format: functional, cell-based; details: Homo sapiens
[17] = test system: BJ; assay: BJ-TERT fibroblast viability loss – cell-based, RAS-independent, luminescence, dose response (AID 1933); format: functional; details: Homo sapiens
[18] = Trypanosoma cruzi growth suppression in host cells – NIH3T3 host cells, beta-gal luminescence, confirmation (AID 2044); format: functional, cell-based;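 note: intracellular parasites grown in NIH/3T3 mouse fibroblasts as host cells; luminescent beta-galactosidase reporter signal from transgenic T. cruzi replicating inside host cells; inhibitors lower the luminescence signal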
[19] = NIH3T3 cell viability loss – ATP luminescence, mouse fibroblasts, counter-screen, dose response (AID 2010); format: functional, cell-based;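 note: cells exposed to compound for about 90 hours before reading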
[20] = toxicity to human hepatoma HepG2 cells – cell-based, cherry-picked samples, cytotoxicity control, dose response (AID 1159577); format: functional
[21] = molecular target: Endoplasmic reticulum aminopeptidase 1 (Homo sapiens, UniProt Q9NZ08); assay: inhibition of human ERAP1 enzyme activity – biochemical, cherry-pick, set 2, plate reader, dose response (AID 743314)
[22] = intracellular Trypanosoma cruzi inhibitors in host cells – cell-based, plate reader, cherry-pick samples, set 3, dose response (AID 651818); format: functional;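 note: compounds incubated with infected cells for about four days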

Endoplasmic reticulum aminopeptidase 1, sequence (Q9NZ08 whole entry): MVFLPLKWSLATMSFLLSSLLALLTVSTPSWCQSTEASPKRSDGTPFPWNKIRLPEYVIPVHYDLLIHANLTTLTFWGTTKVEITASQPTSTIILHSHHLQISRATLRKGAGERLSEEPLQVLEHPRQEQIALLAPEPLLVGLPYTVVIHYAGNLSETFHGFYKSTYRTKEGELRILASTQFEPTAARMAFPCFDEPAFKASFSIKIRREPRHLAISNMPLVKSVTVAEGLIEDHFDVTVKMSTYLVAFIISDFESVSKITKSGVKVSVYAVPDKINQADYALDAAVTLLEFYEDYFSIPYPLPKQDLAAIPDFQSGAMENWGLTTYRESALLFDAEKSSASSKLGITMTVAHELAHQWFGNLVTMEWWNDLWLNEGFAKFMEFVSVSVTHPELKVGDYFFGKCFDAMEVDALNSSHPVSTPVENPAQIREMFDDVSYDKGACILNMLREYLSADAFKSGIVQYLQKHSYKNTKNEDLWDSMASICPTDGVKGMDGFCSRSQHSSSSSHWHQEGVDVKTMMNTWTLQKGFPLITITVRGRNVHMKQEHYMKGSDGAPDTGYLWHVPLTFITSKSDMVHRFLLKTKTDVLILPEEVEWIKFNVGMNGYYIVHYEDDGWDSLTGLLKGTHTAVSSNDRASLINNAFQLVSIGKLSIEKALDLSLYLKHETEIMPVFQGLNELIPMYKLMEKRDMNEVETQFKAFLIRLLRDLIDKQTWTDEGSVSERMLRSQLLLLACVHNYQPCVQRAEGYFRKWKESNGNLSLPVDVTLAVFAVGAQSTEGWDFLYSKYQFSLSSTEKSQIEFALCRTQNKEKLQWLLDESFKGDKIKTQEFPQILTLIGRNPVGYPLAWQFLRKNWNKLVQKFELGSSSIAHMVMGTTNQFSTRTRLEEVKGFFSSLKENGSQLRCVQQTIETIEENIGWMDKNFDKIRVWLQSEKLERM

**Q.** Which CC50 [1] does the source give for `CCOc1ccc(/C=C2\SC(=S)N(CCC(=O)N(CCO)c3ccccc3)C2=O)cc1` here?
**A.** 33500 nM (active)

**Q.** For `CCCc1ccc(OCc2ccc(C(=O)N3CCSCC3)o2)cc1`, which IC50 [2] is on record?
**A.** 904 nM (active)

**Q.** Which results are given for `COc1ccc2c3c([nH]c2c1)[C@@H](CO)N(C(=O)CN(C)C)CC31CCN(CC2CCCCC2)CC1`?
**A.** AC50 [3]: 361 nM (active); AC50 [4]: 904 nM (active); AC50 [5]: 23700 nM (active); AC50 [6]: 731 nM (active); AC50 [7]: 137 nM (active)

**Q.** Which IC50 [8] does the source give for `Clc1ccc(-c2cn3cc(Cl)ccc3n2)cc1` here?
**A.** > 67600 nM (inactive)

**Q.** What about the EC50 [9] of the same compound?
**A.** > 67600 nM (inactive)

**Q.** And the EC50 [10]?
**A.** > 67600 nM (inactive)

**Q.** Which results are given for `CO[C@@H](CN(C)Cc1cc(F)ccc1F)[C@@H](C)CN([C@H](C)CO)S(=O)(=O)c1ccc(F)cc1`?
**A.** AC50 [11]: 28400 nM (active); AC50 [12]: > 52000 nM (inactive); AC50 [13]: 28400 nM (active)

**Q.** For `N#CC1=C(N)Oc2c(ccc3ccccc23)C1c1ccsc1` (centres undefined), which AC50 [14] is on record?
**A.** 17700 nM (active)

**Q.** What about the EC50 [15] of the same compound?
**A.** 221 nM (active)

**Q.** And the EC50 [16]?
**A.** 254 nM (active)

**Q.** What about the EC50 [17] of the same compound?
**A.** 182 nM (inconclusive)

**Q.** And the EC50 [18]?
**A.** 2630 nM (active)

**Q.** And the EC50 [19]?
**A.** 253 nM (active)

**Q.** What does the source list for `C/C=C/c1ccc([C@@H]2[C@@H]3CN(Cc4cccnc4)C[C@H]2N3)cc1`?
**A.** AC50 [20]: > 39000 nM (inactive); AC50 [3]: 1270 nM (active); AC50 [4]: 1410 nM (active); AC50 [5]: 24200 nM (active); AC50 [6]: 1830 nM (active); AC50 [7]: 1410 nM (active)

**Q.** For `COc1cccc(S(=O)(=O)N(C)C[C@@H]2Oc3ncccc3C(=O)N([C@H](C)CO)C[C@@H]2C)c1`, which AC50 [21] is on record?
**A.** 9810 nM (active)

**Q.** For `O=C(CSc1ncccc1C(=O)O)c1ccc2ccccc2c1`, which IC50 [2] is on record?
**A.** 391 nM (active)

**Q.** What does the source list for `C[C@H](CO)N1C[C@H](C)[C@H](CN(C)Cc2ccc(Oc3ccccc3)cc2)Oc2c(NC(=O)Nc3ccc4c(c3)OCO4)cccc2C1=O`?
**A.** AC50 [22]: 3780 nM (active); AC50 [14]: 16900 nM (active)
